# Data as given in patent US20240294522A1 (Lead Discovery Center GmbH, priority 2021, published 2024).
# Assays:
# [1] = tested on: neonatal rat ventricular cardiac myocytes (NRVCMs); test: In vitro cardiomyocyte hypertrophy assay; format: cell-based, Wistar rats; conditions: inhibition of cellular hypertrophy, NRVCMs stimulated with phenylephrine 20 μM and leukemia inhibitory factor 50 ng/ml, 96 h, read-out: Hypertrophy Assay (IC-50)
# Procedure: 5-6 days old Wistar rats were sacrificed by decapitation and neonatal rat ventricular cardiac myocytes (NRVCMs) were prepared using the Neonatal heart dissociation kit (Miltenyi Biotec) according to the manufacturer's instructions. The cardiac single cell suspension was resuspended in DMEM low glucose medium supplemented with 2% fetal bovine serum (FBS) and 50 μg/ml penicillin/streptomycin. 1500 cells/well were seeded on 0.1% gelatin-coated 384-well plates and incubated in medium at 37° C. and 5% CO2 for 24 h prior to the addition of test compounds to the cells at titrated concentrations. Cellular hypertrophy was then stimulated by adding phenylephrine and leukemia inhibitory factor at final concentrations of 20 μM and 50 ng/ml, respectively, and the cells were incubated for another 96 h. For immunocytochemistry, cells were fixed with 4% formaldehyde on day 5 of compound treatment and cardiomyocytes were stained with antibodies against a-actinin while cell nuclei were stained with DAPI. Image acquisition and phenotypic analysis was performed using an Image-Xpress Micro XL automated microscope (Molecular Devices).
# Inhibition of cellular hypertrophy is indicated as IC50 [nM]. Compounds having an activity designated as “A” provided an IC50≤500 nM; compounds having an activity designated as “B” provided an 500 nM<IC50≤1000 nM; compounds having an activity designated as “C” provided an IC50>1000 nM.
# GRK2 = molecular target: T1, GRK2 (Homo sapiens, UniProt P25098); test: Lance Kinase Activity Assay, GRK2; conditions: biochemical Lance kinase activity assay; class symbols A-F; read-out: GRK2 LANCE Assay (IC-50)
# T1 construct: purchased Thermo Scientific
# T1 sequence (P25098 1-689): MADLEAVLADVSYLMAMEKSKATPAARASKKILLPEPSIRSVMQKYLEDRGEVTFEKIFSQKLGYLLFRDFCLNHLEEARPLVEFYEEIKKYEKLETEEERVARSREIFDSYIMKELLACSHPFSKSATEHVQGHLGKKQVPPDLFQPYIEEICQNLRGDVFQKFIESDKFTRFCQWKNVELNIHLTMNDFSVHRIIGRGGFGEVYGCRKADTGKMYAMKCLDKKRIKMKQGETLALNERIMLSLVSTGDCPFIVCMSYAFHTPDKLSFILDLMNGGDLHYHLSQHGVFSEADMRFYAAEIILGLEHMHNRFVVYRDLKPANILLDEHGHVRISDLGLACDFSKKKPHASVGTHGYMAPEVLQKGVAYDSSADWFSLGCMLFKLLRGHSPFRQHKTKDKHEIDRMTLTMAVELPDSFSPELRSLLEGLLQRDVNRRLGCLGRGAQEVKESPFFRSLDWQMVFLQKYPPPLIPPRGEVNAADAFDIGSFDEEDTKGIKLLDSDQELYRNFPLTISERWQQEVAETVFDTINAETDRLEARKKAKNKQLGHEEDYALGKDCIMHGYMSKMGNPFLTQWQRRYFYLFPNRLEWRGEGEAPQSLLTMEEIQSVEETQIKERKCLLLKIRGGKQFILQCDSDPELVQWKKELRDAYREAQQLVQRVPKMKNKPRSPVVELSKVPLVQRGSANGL
# In short: (§1)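 IC50s from sigmoidal dose-response over 0.0025-10 μM compound, with phosphorylated ULight substrate detected by Eu anti-phospho antibody FRET after EDTA quench.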
# GRK5 = molecular target: T2, GRK5 (Homo sapiens, UniProt P34947); test: Lance Kinase Activity Assay, GRK5; conditions: biochemical Lance kinase activity assay; class symbols A-F; read-out: GRK5 LANCE Assay (IC-50)
# T2 construct: purchased Thermo Scientific
# T2 sequence (P34947 whole entry): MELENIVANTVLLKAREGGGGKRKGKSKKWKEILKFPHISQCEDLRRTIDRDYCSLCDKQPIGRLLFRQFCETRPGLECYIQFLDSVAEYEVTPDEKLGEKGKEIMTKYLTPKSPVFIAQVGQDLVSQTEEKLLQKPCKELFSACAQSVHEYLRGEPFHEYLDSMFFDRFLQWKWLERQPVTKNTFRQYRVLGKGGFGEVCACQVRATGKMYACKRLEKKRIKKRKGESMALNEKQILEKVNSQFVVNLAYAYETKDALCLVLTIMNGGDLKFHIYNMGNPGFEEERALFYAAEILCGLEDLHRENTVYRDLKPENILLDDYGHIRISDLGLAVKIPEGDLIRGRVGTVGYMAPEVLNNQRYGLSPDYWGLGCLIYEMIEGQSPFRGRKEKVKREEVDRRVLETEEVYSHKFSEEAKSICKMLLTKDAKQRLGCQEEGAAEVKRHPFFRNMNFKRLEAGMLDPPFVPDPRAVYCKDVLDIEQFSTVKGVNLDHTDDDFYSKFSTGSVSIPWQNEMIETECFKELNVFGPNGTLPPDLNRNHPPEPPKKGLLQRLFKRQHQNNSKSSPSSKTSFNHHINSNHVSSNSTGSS
# In short: as §1
IC50 (GRK2) [µM],IC50 (GRK5) [µM],SMILES,IC50 [1] [µM]
1 to 10,≤ 0.05,"COc1ccc([C@@H](C)NC(=O)/C(C#N)=C/c2c[nH]c3ncc(-c4cnn(C5CCNCC5)c4)cc23)cc1OC [Example 89, (R,E)-2-cyano-N-(1-(3,4-dimethoxyphenyl)ethyl)-3-(5-(1-(piperidin-4-yl)-1H-pyrazol-4-yl)-1H-pyrrolo[2,3-b]pyridin-3-yl)acrylamide]",> 1
1 to 10,≤ 0.05,COc1ccc([C@@H](C)NC(=O)/C(C#N)=C/c2c[nH]c3ncc(-c4ccc(F)c(S(C)(=O)=O)c4)cc23)cc1OC [Example 169],0.5 to 1
1 to 10,≤ 0.05,"COc1ccc([C@@H](C)NC(=O)/C(C#N)=C/c2c[nH]c3ncc(OCCN(C)C)cc23)cc1OC [Example 104, (R,E)-2-cyano-N-(1-(3,4-dimethoxyphenyl)ethyl)-3-(5-(2-(dimethylamino)ethoxy)-1H-pyrrolo[2,3-b]pyridin-3-yl)acrylamide]",> 1
1 to 10,≤ 0.05,"COc1ccc([C@@H](C)NC(=O)/C=C/c2c[nH]c3ncc(-c4cnn5ccccc45)cc23)cc1OC [Example 205, (R,E)-N-(1-(3,4-dimethoxyphenyl)ethyl)-3-(5-(pyrazolo[1,5-a]pyridin-3-yl)-1H-pyrrolo[2,3-b]pyridin-3-yl)acrylamide]",0.5 to 1
1 to 10,≤ 0.05,"COc1ccc([C@@H](C)NC(=O)/C=C/c2c[nH]c3ncc(-c4cnn(CCN(C)C)c4)cc23)cc1OC [Example 213, (R,E)-N-(1-(3,4-dimethoxyphenyl)ethyl)-3-(5-(1-(2-(dimethylamino)ethyl)-1H-pyrazol-4-yl)-1H-pyrrolo[2,3-b]pyridin-3-yl)acrylamide]",> 1
0.05 to 0.1,≤ 0.05,"COc1cc([C@@H](C)NC(=O)/C(C#N)=C/c2c[nH]c3ncc(-c4cnn(C)c4)cc23)ccc1F [Example 94, (R,E)-2-cyano-N-(1-(4-fluoro-3-methoxyphenyl)ethyl)-3-(5-(1-methyl-1H-pyrazol-4-yl)-1H-pyrrolo[2,3-b]pyridin-3-yl)acrylamide]",≤ 0.5
> 10,≤ 0.05,"COc1ccc([C@@H](C)NC(=O)/C=C/c2c[nH]c3ncc(-c4cc(S(C)(=O)=O)ccc4C)cc23)cc1OC [Example 248, (R,E)-N-(1-(3,4-dimethoxyphenyl)ethyl)-3-(5-(2-methyl-5-(methylsulfonyl)phenyl)-1H-pyrrolo[2,3-b]pyridin-3-yl)acrylamide]",–
0.5 to 1,≤ 0.05,COc1ccc([C@@H](C)NC(=O)/C(C#N)=C/c2c[nH]c3ncc(-c4ccc(OCCN(C)C)cc4)cc23)cc1OC [Example 154],–
1 to 10,0.5 to 1,"CS(=O)(=O)Nc1ccccc1CNC(=O)/C(C#N)=C/c1c[nH]c2ncccc12 [Example 42, (E)-2-cyano-N-(2-(methylsulfonamido)benzyl)-3-(1H-pyrrolo[2,3-b]pyridin-3-yl)acrylamide]",–
1 to 10,≤ 0.05,COc1ccc([C@@H](C)NC(=O)/C(C#N)=C/c2c[nH]c3ncc(-c4cnn5ccccc45)cc23)cc1OC [Example 167],–
1 to 10,≤ 0.05,"COc1ccc([C@@H](C)NC(=O)/C=C/c2c[nH]c3ncc(-c4cnn(C)c4C)cc23)cc1OC [Example 202, (R,E)-N-(1-(3,4-dimethoxyphenyl)ethyl)-3-(5-(1,5-dimethyl-1H-pyrazol-4-yl)-1H-pyrrolo[2,3-b]pyridin-3-yl)acrylamide]",–
1 to 10,≤ 0.05,"COc1ccc([C@@H](C)NC(=O)/C=C/c2c[nH]c3ncc(-c4cnn(C5COC5)c4)cc23)cc1OC [Example 215, (R,E)-N-(1-(3,4-dimethoxyphenyl)ethyl)-3-(5-(1-(oxetan-3-yl)-1H-pyrazol-4-yl)-1H-pyrrolo[2,3-b]pyridin-3-yl)acrylamide]",–
> 10,1 to 10,"CN(C)c1ccccc1CNC(=O)/C(C#N)=C/c1c[nH]c2ncccc12 [Example 25, (E)-2-cyano-N-(2-(dimethylamino)benzyl)-3-(1H-pyrrolo[2,3-b]pyridin-3-yl)acrylamide]",–
> 10,1 to 10,"CN(C)c1ccc(CNC(=O)/C(C#N)=C/c2c[nH]c3ncccc23)cc1 [Example 24, (E)-2-cyano-N-(4-(dimethylamino)benzyl)-3-(1H-pyrrolo[2,3-b]pyridin-3-yl)acrylamide]",–
≤ 0.05,0.1 to 0.5,"CC(=O)Nc1cccc(CNC(=O)/C(C#N)=C/c2c[nH]c3ncccc23)c1 [Example 34, (E)-N-(3-acetamidobenzyl)-2-cyano-3-(1H-pyrrolo[2,3-b]pyridin-3-yl)acrylamide]",–
0.1 to 0.5,≤ 0.05,COc1ccc([C@@H](C)NC(=O)/C=C/c2c[nH]c3ncc(-c4ccc(N5CCN(C(C)=O)CC5)cc4)cc23)cc1OC [Example 182],–
1 to 10,≤ 0.05,"C[C@@H](NC(=O)/C=C/c1c[nH]c2ncc(-c3cnn(C)c3)cc12)c1ccc2c(c1)OCO2 [Example 246, (R,E)-N-(1-(benzo[d][1,3]dioxol-5-yl)ethyl)-3-(5-(1-methyl-1H-pyrazol-4-yl)-1H-pyrrolo[2,3-b]pyridin-3-yl)acrylamide]",–
> 10,≤ 0.05,"COc1ccc([C@@H](C)NC(=O)/C=C/c2c[nH]c3ncc(-c4cccc(S(=O)(=O)C(F)(F)F)c4)cc23)cc1OC [Example 264, (R,E)-N-(1-(3,4-dimethoxyphenyl)ethyl)-3-(5-(3-((trifluoromethyl)sulfonyl)phenyl)-1H-pyrrolo[2,3-b]pyridin-3-yl)acrylamide]",–
> 10,≤ 0.05,"COc1ccc([C@@H](C)NC(=O)/C=C/c2c[nH]c3ncc(-c4cncc(S(C)(=O)=O)c4)cc23)cc1OC [Example 218, (R,E)-N-(1-(3,4-dimethoxyphenyl)ethyl)-3-(5-(5-(methylsulfonyl)pyridin-3-yl)-1H-pyrrolo[2,3-b]pyridin-3-yl)acrylamide]",–
1 to 10,0.5 to 1,"N#C/C(=C\c1c[nH]c2ncccc12)C(=O)NCc1cccc2[nH]ncc12 [Example 45, (E)-N-((1H-indazol-4-yl)methyl)-2-cyano-3-(1H-pyrrolo[2,3-b]pyridin-3-yl)acrylamide]",–
1 to 10,0.1 to 0.5,"O=C(/C=C/c1c[nH]c2ncc(Cl)cc12)NCc1ccccc1 [Example 6, (E)-N-benzyl-3-(5-chloro-1H-pyrrolo[2,3-b]pyridin-3-yl)acrylamide]",–
1 to 10,0.5 to 1,"N#C/C(=C\c1c[nH]c2ncccc12)C(=O)NCc1cccc(C#N)c1 [Example 31, (E)-2-cyano-N-(3-cyanobenzyl)-3-(1H-pyrrolo[2,3-b]pyridin-3-yl)acrylamide]",–
1 to 10,≤ 0.05,"COc1ccc([C@@H](CO)NC(=O)/C=C/c2c[nH]c3ncc(C)cc23)cc1OC [Example 53, (S,E)-N-(1-(3,4-dimethoxyphenyl)-2-hydroxyethyl)-3-(5-methyl-1H-pyrrolo[2,3-b]pyridin-3-yl)acrylamide]",–
1 to 10,≤ 0.05,"COc1ccc([C@@H](C)NC(=O)/C=C/c2c[nH]c3ncc(-c4cccc(S(N)(=O)=O)c4)cc23)cc1OC [Example 208, (R,E)-N-(1-(3,4-dimethoxyphenyl)ethyl)-3-(5-(3-sulfamoylphenyl)-1H-pyrrolo[2,3-b]pyridin-3-yl)acrylamide]",–
0.05 to 0.1,≤ 0.05,"Cc1noc2ccc([C@@H](C)NC(=O)/C=C/c3c[nH]c4ncc(-c5cnn(C)c5)cc34)cc12 [Example 260, (R,E)-3-(5-(1-methyl-1H-pyrazol-4-yl)-1H-pyrrolo[2,3-b]pyridin-3-yl)-N-(1-(3-methylbenzo[d]isoxazol-5-yl)ethyl)acrylamide]",–
> 10,0.1 to 0.5,COc1ccc([C@@H](C)NC(=O)/C(C#N)=C/c2c[nH]c3ncc(-c4ccccc4CN(C)C)cc23)cc1OC [Example 136],–
